Several values for one entry are separate records, joined by “and”; a condition that tells them apart may be missing. Equal entries are not always repeated.
Test system: Snu398 cells
Conditions: Snu-398 conditioned medium, 10 μM, 24 h
Protocol: Ten million Snu398 or HepG2 cells per flask were plated in R10 medium in T150 tissue culture flasks and allowed to attach overnight. The following morning, medium was replaced with medium containing either DMSO or 10 μM LDHA inhibitor, and cells were incubated for 24 h at 37°C. The conditioned medium was collected and cells were washed, lifted by trypsinization and pelleted. Both medium and cell samples were submitted for mass spectroscopy (MS) analysis of over 500 individual metabolites. All samples were prepared in replicates of five.

SMILES: COc1ncc(-c2ccc3c(Nc4cc(C(=O)O)cc(C5CCCC5)c4)c(S(=O)(=O)NC4CC4)cnc3c2)c(OC)n1 [Compound 2]
- fold change 1-oleoylglycerophosphocholine: 1.05
- fold change 1-palmitoleoylglycerophosphocholine*: 0.90
- fold change 1-palmitoylglycerophosphocholine: 1.01
- fold change 1-stearoylglycerophosphocholine: 1.19
- fold change 2'-O-methylguanosine: 0.80
- fold change 2-aminobutyrate: 0.99
- fold change 2-hydroxybutyrate (AHB): 0.99
- fold change 2-hydroxyglutarate: 1.18
- fold change 2-methylbutyroylcarnitine: 1.01
- fold change 2-methylbutyrylglycine: 1.13
- fold change 2-oleoylglycerophosphocholine*: 0.98
- fold change 2-palmitoylglycerophosphocholine*: 1.26
- fold change 2-stearoylglycerophosphocholine*: 1.42
- fold change 3-(4-hydroxyphenyl)lactate: 0.97
- fold change 3-dehydrocarnitine*: 1.02
- fold change 3-indoxyl sulfate: 1.06
- fold change 3-methyl-2-oxobutyrate: 1.05
- fold change 3-methyl-2-oxovalerate: 1.03
- fold change 4-acetamidobutanoate: 0.90
- fold change 4-guanidinobutanoate: 0.77
- fold change 4-methyl-2-oxopentanoate: 1.21
- fold change 5-oxoproline: 1.19
- fold change 6'-sialyllactose: 1.11
- fold change C-glycosyltryptophan*: 0.98
- fold change HEPES: 0.97
- fold change Isobar: 2-propylpentanoic acid, 2-ethylhexanoic acid: 1.15
- fold change N1-methyladenosine: 1.01
- fold change N1-methylguanosine: 0.95
- fold change N6-carbamoylthreonyladenosine: 0.91
- fold change N-acetylaspartate (NAA): 0.99
- fold change N-acetylneuraminate: 0.79
- fold change N-acetylornithine: 1.11
- fold change X - 02952: 0.28
- fold change X - 02973: 1.02
- fold change X - 03090: 1.76
- fold change X - 04015: 1.25
- fold change X - 04133: 1.17
- fold change X - 04135: 1.33
- fold change X - 04148: 1.14
- fold change X - 04252: 0.37
- fold change X - 04357: 3.15
- fold change X - 05907: 1.01
- fold change X - 06126: 0.91
- fold change X - 06911: 0.81
- fold change X - 08172: 1.18
- fold change X - 08889: 1.38
- fold change X - 08895: 0.98
- fold change X - 09008: 1.34
- fold change X - 09026: 1.05
- fold change X - 10475: 1.45
- fold change X - 10476: 1.32
- fold change X - 10634: 0.42
- fold change X - 10740: 0.87
- fold change X - 10869: 0.69
- fold change X - 11081: 1.19
- fold change X - 11315: 1.04
- fold change X - 11533: 0.87
- fold change X - 11593: 0.89
- fold change X - 11787: 0.94
- fold change X - 12013: 0.89
- fold change X - 12015: 1.01
- fold change X - 12117: 1.10
- fold change X - 12216: 0.96
- fold change X - 12339: 1.00
- fold change X - 12435: 0.96
- fold change X - 12602: 0.99
- fold change X - 12729: 1.00
- fold change X - 12749: 0.94
- fold change X - 12776: 1.11
- fold change X - 12786: 2.02
- fold change X - 12792: 1.10
- fold change X - 12799: 0.97
- fold change X - 12944: 1.00
- fold change X - 13100: 0.98
- fold change X - 13103: 0.98
- fold change X - 13104: 1.21
- fold change X - 13110: 1.01
- fold change X - 13115: 0.80
- fold change X - 13117: 0.96
- fold change X - 13166: 0.94
- fold change X - 13483: 0.87
- fold change X - 13491: 1.35
- fold change X - 13494: 1.24
- fold change X - 13496: 1.00
- fold change X - 13507: 1.11
- fold change X - 13553: 1.09
- fold change X - 13581: 2.54
- fold change X - 13857: 0.86
- fold change X - 14056: 1.73
- fold change X - 14574: 1.45
- fold change X - 14588: 0.84
- fold change X - 15558: 1.10
- fold change X - 15559: 1.21
- fold change X - 15562: 1.10
- fold change X - 15563: 1.18
- fold change X - 15678: 1.19
- fold change X - 15808: 1.12
- fold change X - 16103: 0.95
- fold change X - 16116: 0.82
- fold change X - 16200: 1.20
- fold change X - 16206: 1.03
- fold change X - 16439: 1.19
- fold change X - 16444: 1.03
- fold change X - 17112: 0.96
- fold change X - 17430: 1.10
- fold change acetylcarnitine: 0.97
- fold change acetylphosphate: 1.00
- fold change alanine: 1.20
- fold change alanylglutamine: 0.94
- fold change allantoin: 1.08
- fold change arabitol: 1.09
- fold change arachidonate (20:4n6): 1.01
- fold change arginine: 0.98
- fold change asparagine: 0.74
- fold change aspartate: 1.09
- fold change aspartylleucine: 0.96
- fold change beta-alanine: 0.86
- fold change beta-hydroxyisovalerate: 0.93
- fold change beta-hydroxypyruvate: 1.05
- fold change betaine: 1.00
- fold change biotin: 0.97
- fold change butyrylcarnitine: 0.76
- fold change caproate (6:0): 1.01
- fold change caprylate (8:0): 1.04
- fold change carnitine: 0.93
- fold change catechol sulfate: 1.01
- fold change choline: 0.97
- fold change citrate: 1.02
- fold change citrulline: 0.95
- fold change creatine: 1.01
- fold change creatinine: 1.07
- fold change cyclo(leu-ala): 0.93
- fold change cysteine: 1.01
- fold change cysteine sulfinic acid: 0.95
- fold change cysteine-glutathione disulfide: 1.41
- fold change deoxycarnitine: 0.95
- fold change dimethyl sulfoxide*: 1.03
- fold change dimethylarginine (SDMA + ADMA): 1.30
- fold change docosahexaenoate (DHA; 22:6n3): 1.03
- fold change docosapentaenoate (n3 DPA; 22:5n3): 0.89
- fold change erythritol: 1.01
- fold change erythronate*: 0.96
- fold change ethanolamine: 1.09
- fold change folate: 1.00
- fold change fructose: 1.01
- fold change fumarate: 0.99
- fold change gamma-glutamylisoleucine*: 0.74
- fold change gamma-glutamylleucine: 0.89
- fold change gamma-glutamylphenylalanine: 1.18
- fold change gamma-glutamylvaline: 0.85
- fold change glucose: 1.07
- fold change glutamate: 1.05
- fold change glutamine: 1.15
- fold change glycerate: 1.15
- fold change glycerol: 1.10
- fold change glycerol 3-phosphate (G3P): 0.95
- fold change glycerophosphorylcholine (GPC): 0.86
- fold change glycine: 1.06
- fold change glycochenodeoxycholate: 0.90
- fold change glycocholate: 1.02
- fold change glycylglycine: 0.90
- fold change glycylleucine: 0.84
- fold change glycyltyrosine: 0.99
- fold change glycylvaline: 0.96
- fold change heme*: 0.94
- fold change hexadecanedioate: 1.07
- fold change hippurate: 0.98
- fold change histidine: 1.01
- fold change homostachydrine*: 1.01
- fold change hydroquinone: 0.85
- fold change indolelactate: 1.02
- fold change isobutyrylcarnitine: 1.03
- fold change isoleucine: 0.96
- fold change isovalerate: 0.68
- fold change isovalerylcarnitine: 1.02
- fold change kynurenate: 1.10
- fold change kynurenine: 1.07
- fold change lactate: 0.94
- fold change leucine: 0.95
- fold change lysine: 0.51
- fold change lysylleucine: 0.85
- fold change malate: 0.95
- fold change mannitol: 0.82
- fold change methionine: 0.94
- fold change myo-inositol: 0.98
- fold change nicotinamide: 0.87
- fold change ornithine: 0.80
- fold change p-aminobenzoate (PABA): 0.98
- fold change p-cresol sulfate: 0.96
- fold change palmitoyl sphingomyelin: 0.96
- fold change pantothenate: 0.98
- fold change phenol red: 0.99
- fold change phenol sulfate: 1.00
- fold change phenylacetylglycine: 0.95
- fold change phenylalanine: 0.89
- fold change phosphate: 1.01
- fold change pipecolate: 1.02
- fold change pro-hydroxy-pro: 1.06
- fold change proline: 1.13
- fold change propionylcarnitine: 0.95
- fold change pseudouridine: 1.02
- fold change putrescine: 0.82
- fold change pyridoxate: 0.95
- fold change pyridoxine (Vitamin B6): 1.02
- fold change pyruvate: 3 and 2.66
- fold change ribitol: 1.06
- fold change riboflavin (Vitamin B2): 1.02
- fold change scyllo-inositol: 0.89
- fold change serine: 0.84
- fold change serotonin (5HT): 1.03
- fold change sorbitol: 0.98
- fold change succinate: 0.98
- fold change taurocholate: 0.89
- fold change taurodeoxycholate: 0.96
- fold change tetradecanedioate: 0.80
- fold change thiamin (Vitamin B1): 1.12
- fold change threitol: 0.96
- fold change threonine: 0.96
- fold change trans-4-hydroxyproline: 1.06
- fold change tryptophan: 0.90
- fold change tyrosine: 0.91
- fold change uracil: 0.99
- fold change urea: 1.10
- fold change uridine: 1.20
- fold change valerylcarnitine: 0.97
- fold change valine: 0.95
- fold change xylitol: 1.13

From paper PMC4178217, “Quinoline 3-sulfonamides inhibit lactate dehydrogenase A and reverse aerobic glycolysis in cancer cells” (Cancer & Metabolism, 2013)
